Consider one molecule from US20260124223A1, “CANCER IMMUNOTHERAPIES” (Northwestern University, priority 2022, published 2026).

Values joined by “and” are separate entries in the source; they are usually repeats but may differ in a detail not shown here. Equal entries are not always repeated. Where two headings read alike, the source gives them in different places.

The test system of data set [1] is HMC3 cells. The experiment in a line: Flow cytometry of IFNγ, HLA ABC and PD-L1 in HMC3 cells. Particulars: 5-hour pulse, 72 hours, specific DOX concentrations. Type of data set: cell-based, human. As to the method:
(§1) Flow cytometry of PDX cell lines and HMC3 cells. PDX cell lines were kindly gifted. HMC3 cells were acquired from ATCC. GBM6, GBM63 and HMC3 cells were seeded on 6-well plates for treatment with increasing concentrations of DOX hydrochloride (D1515, Sigma Aldrich), IFN-γ (300-02, Peprotech) or 50 μM of TMZ (Accord). PDX and HMC3 cells were treated for 5 hours followed by 3 washes with PBS and cultured afterwards with Dulbecco's modified Eagle's medium (Corning) supplemented with 10% FBS (Hyclone) and 1% penicillin/streptomycin (Corning). 72 hours after treatment, PDX cells were harvested using Accutase cell detachment solution (Corning) and were stained initially with eBioscience Fixable Viability Dye eFluor 780 (Thermo Fisher) at 1:1000 dilution. Staining with HLA ABC AF-647 (311414) and HLA-DR BV421 (307636) was done for PDX cells. IFN-γ AF-700 (502520), HLA ABC FITC (311404), PD-L1 Pe-Cy7 (374506). All antibodies for this experiment were from Biolegend. Data was acquired using BD FACSymphony Flow Cytometer.
On the technique in general: Flow cytometry measures light scatter and fluorescence of single cells or particles in a stream.

For data set [2], the system named is HMC3. The experiment in a line: FCGR3A / FcγRIIIA expression in HMC3 cells (qRT-PCR, flow cytometry). Conditions: DOX 5 hours, fresh media 72 hours. The format is cell-based, human. As to the method: as §1
For data set [3], the system named is GBM6. The experiment in a line: Flow cytometry of antigen-presenting molecules in PDX cell line GBM6. Type of data set: cell-based, human. Conditions: 5 hours exposure, 72 hours drug-free, relative to no treatment. As to the method: as §1
Data set [4] deals with GL261-bearing mice. The data set can be described thus: Immunophenotyping of GL261-bearing mice treated with increasing doses of liposomal DOX with or without US/MB. The format is in vivo, mouse. Particulars: 1 and 2 mg/kg; 5 mg/kg without US/MB. As to the method: (§2) Ultrasound-mediated BBB opening in mouse models.
(§3) After injection of glioma cells, the incision was closed using 9 mm stainless steel wound clips. On day 7 and 14 after IC implantation of glioma cell lines, mice were treated with liposomal DOX obtained from the pharmacy of Northwestern Memorial Hospital. On day 7, 10, 14, and 17 after IC injection of glioma cells, mice were treated with either […] of anti-mouse PD-1 (CD279) BE0146 (BioXcell) or rat IgG2a isotype control BE0089 (BioXcell).

Data set [5] deals with GL261. The experiment in a line: H-2Kb expression in GL261 cells by flow cytometry. The format is cell-based, mouse. Conditions: similar DOX concentration range, compared to no treatment.
Data set [6] is described as follows: DOX concentration in blood, tumor and peritumoral brain tissue of GBM patients (LC/MS). Type of data set: in vivo, human. Particulars: for concentration at 48 h: human, intravenous, GBM patients, 48 hours after liposomal DOX with US/MB. As to the method: Patients received additional treatment cycles with sonications in an outpatient setting in which the US device was activated by percutaneous access with a single-use transdermal needle concomitantly with the injection of 10 μL/kg of IV microbubbles (DEFINITY, Lantheus, Billerica, USA) and 200 mg of pembrolizumab and 30 mg of liposomal DOX.
Determination of the DOX concentration in blood, tumor and peritumoral brain tissue. Two GBM patients undergoing surgery for resection of tumor with implantation of the Sonocloud-9 US device were studied for this analysis. […] Sonicated and non-sonicated peritumoral brain samples were identified taking into account their location relative to the sonication field of the US device. Non-sonicated peritumoral brain samples were acquired first with the use of a new set of surgical instruments for each sample. Every peritumoral brain tissue was washed with saline solution to remove blood. These samples were sectioned into 30 mg pieces and were flash-frozen for further quantification of DOX levels. DOX was quantified in tumor, peritumoral, and plasma using LC/MS (6500 QTRAP AB Sciex equipped with a SIL-20AC XR HPLC, Shimadzu Scientific Instruments).

Data set [7] deals with recurrent GBM patients. The experiment in a line: Multiplex immunofluorescence of pre-treatment and on-treatment human GBM samples. Particulars: tumors exposed to DOX vs before DOX.
Data set [8] concerns CT2A-bearing mice. The experiment in a line: Survival of CT2A-bearing mice treated with aPD-1, liposomal DOX, US/MB. The format is in vivo, mouse. As to the method:
as §2
Cell lines and implantable syngeneic murine glioma models for survival and immunophenotyping studies. Murine GL261 cell line was acquired from the National Institutes of Health. CT2A cell line was acquired from Millipore. GL261 and CT2A were cultured in Dulbecco's modified Eagle's medium (Corning) supplemented with 10% FBS (Hyclone) and 1% penicillin/streptomycin (Corning) at 37° C. in incubators with humified atmosphere of 5% CO2 and 95% air.
as §3

In data set [9] the test system is GBM63. The data set can be described thus: Flow cytometry of antigen-presenting molecules in PDX cell line GBM63. The format is cell-based, human. Particulars: 5 hours exposure, 72 hours drug-free. As to the method: as §1
For data set [10], the system named is GL261 tumor-bearing mice. Conditions: LIPU/MB+IC+DOX.
Experimental: Cell culture. […] Both cell lines were cultured in Dulbecco's modified Eagle's medium (Gibco) supplemented with 10% fetal bovine serum (Gibco), and 1% penicillin/streptomycin (Gibco) in 5% CO2 incubators at 37° C. […] QPP4 cells were maintained in Dulbecco's modified Eagle's medium/F-12 (Gibco) supplemented with B-27 (Gibco), recombinant epidermal growth factor (EGF, 20 ng/ml, PeproTech), and recombinant basic fibroblast growth factor (bFGF, 20 ng/ml, PeproTech).
Animal Experiments. […] All murine cell lines used for this study were routinely tested for mycoplasma and were confirmed negative before intracranial orthotopic injection. To perform intracranial injection of syngeneic murine glioma cell lines, mice were anesthetized with ketamine/xylazine cocktail. Artificial tears were used to prevent eye drying and protect the eye. […] Mice were monitored daily and were euthanized when they approached the endpoint (weight loss is >20% of pre-treatment body weight or loss of mobility or severe neurological disabilities such as seizure, circular motion, etc.) as described in the IACUC protocol.
LIPU/MB. […] Sonications were performed for 120 seconds using a 25,000-cycle burst at a 1 Hz pulse repetition frequency and an acoustic pressure of 0.3 MPa as measured in water. After sonications, mice were moved to a clean cage, placed upon a heating pad, and monitored until they recovered from anesthesia.

For the molecule `COc1cccc2c1C(=O)c1c(O)c3c(c(O)c1C2=O)C[C@@](O)(C(=O)CO)C[C@@H]3O[C@H]1C[C@H](N)[C@H](O)[C@H](C)O1` [DOX, Doxorubicin], in [1], the “expression of HLA ABC” value is on record as “promoted”, the “expression of PD-L1” value is reported as “promoted” and the “production of IFNγ” value was “promoted”. Besides, the “FCGR3A expression, times higher than in untreated microglia” value in data set [2] is listed as about 16 times. Further, the “DOX concentration range that upregulated HLA ABC and HLA DR expression” value in data set [3] is 0.15 to 1.2 M. Further, the “IFN-γ by glioma-associated myeloid cells” value in data set [4] is “no other doses of DOX nor the 5 mg/kg of dose delivered in the absence of US/MB elicited IFN-γ”. Moreover, in data set [5], the H-2Kb expression result is on record as “upregulated”. Besides, in data set [6] (2 GBM patients, 48 hours, 95% CI of mean 1.406-2.659), the “fold increase in DOX concentration, sonicated relative to non-sonicated peritumoral brain samples” value is recorded as 2.033 fold. Further, the concentration at 48 h in data set [6] (plasma, read-out: DOX plasma levels) is 8230 ng/mL and 14.2 µM. Moreover, the concentration at 48 h in data set [6] (tumor, read-out: DOX tumor concentrations) was 146 ng/g to 2290 ng/g and 251 nM to 3.94 µM. In addition, the “TMEM119+ cells expressing HLA I” value in data set [7] (P=0.0092) was “increased number”. Moreover, the “CD163+ cells expressing HLA I” value in [7] (P=0.0712) is given as “increased number”. The “survival in Cd8−/− and Cd8+/+ mice” value in [8] (DOX plus anti-PD-1 antibody with US/MB, P=0.0452) is on record as “survival benefit was only observed in mice that had intact immunity”. Further, the long-term survival percentage in [8] (anti-PD-1 antibody added to DOX plus US/MB) is on record as 80%. In data set [9], the “DOX concentration range that upregulated HLA ABC and HLA-DR expression” value was 0.15 to 0.6 M. Further, the long-term survivors in data set [10] is recorded as 16.7%.
